For data set [1], the target named is ERK2 (Homo sapiens, UniProt P28482). Put plainly: ADP-Glo kinase assay. The data set is classed as biochemical. The method, then:
(§1) The full-length human ERK1 or ERK2 with His-tag was cloned into a pET28a vector. hERK1/2 were expressed in Escherichia coli BL21(DE3), and then were purified using sequential Ni-NTA and Superdex 200 column steps. The SEC purified sample was then concentrated to 10 mg/ml and stored at −80 °C with buffer containing 20 mM HEPES pH 7.5, 150 mM NaCl. ERK5 (residues 48–395) containing His and GST tags was cloned into the pFastBac vector, and the recombinant plasmid was extracted. The recombinant plasmid was transformed into the DH10bac strain, and monoclonal was selected for culture. The recombinant Bacmid was then extracted according to the instructions of the Baculovirus Shuttle Vector Bacmid Mini Preparation Kit (Beyotime) and validated by PCR. 1 × 10^6/well Sf9 cells were counted for transfection and then amplified to obtain P3 ERK5 recombinant baculovirus. It was added to 2 × 10^6/mL Sf9 cells and incubated at 27 °C for 72 h on a shaker to express ERK5. Cells were lysed and supernatant was collected on a Ni-NTA for purification, and a 250 mM imidazole eluate was collected. Next, digestion by TEV protease was performed overnight while dialysis was performed in approximately 1000 mL of imidazole-free buffer. The digested ERK5 protein was sequentially purified on the Ni-NTA and GST-tag Purification Resin, followed by size exclusion chromatography on a Superdex 75 column. ERK5 protein was collected and concentrated to 12 mg/ml and stored at −80 °C in buffer containing 50 mM HEPES pH 8.0, 200 mM NaCl, 10% (v/v) glycerol.
(§2) ERK1/2/5 kinase activity assay was conducted using ADP-Glo™ Kinase Assay. 2× ATP solution and 2× kinase & Metal solution were prepared using assay buffer were prepared using assay buffer containing 50 mM Hepes pH 7.5, 10 mM MgCl2; 0.01% Brij35, 1 mM EGTA, 2 mM DTT. Transfer 40 nL compounds to 384 assay plate. Add 2 μL of 2× kinase & Metal solution were mixed and incubated in a 384-assay plate for 10 min at 25 °C. 2 μL of 2×ATP solution was added and incubated at 25 °C for 60 min. And then, each well was supplemented with 4 µL of ADP-Glo^TM reagent and incubated at 25 °C for 40 min. Subsequently, 8 µL of Kinase Detection Reagent was added and incubated at 25 °C for 40 min. Finally, the luminescence signals were recorded. The IC50 values were calculated using GraphPad Prism 9.5 software.

Data set [2] deals with ERK5 (Homo sapiens, UniProt Q13164). Briefly: ADP-Glo kinase assay. The class given is biochemical. The method, then:
as §1, §2

Data set [3] in a line: Liver microsome metabolic stability. The class given is in vitro ADME. The method, then:
An appropriate amount of SD rat and human liver microsomal solution was incubated at 37 °C with a specified concentration of candidate compounds for 5 min, and then NADPH reaction system was added to initiate metabolic reaction. The reaction was terminated at a series of time points by adding acetonitrile solution containing an internal standard compound. Centrifuge at 12,000 rpm for 20 min, take the supernatant solution, and place it in a vacuum centrifuge to dry. After acetonitrile was dissolved, the supernatant solution was centrifugated, and the remaining compounds were quantified by LC-MS to evaluate the metabolic stability of liver microsomes.

The nature of data set [4]: Caco-2 bidirectional transport. Particulars: human. The class given is in vitro ADME. The method, then:
(§3) Caco-2 cells were inoculated in a Transwell chamber with a pore size of 0.4 μm, and cultured for 15–20 days, the formation of the monolayer cell model was verified by the permeability determination of fluorescein sodium. Then a certain concentration of culture-medium containing candidate compounds was added to the upper and lower sides of different groups of cells, and the culture-medium at the corresponding position was absorbed after the specified time. After the internal standard compound was added, the content of candidate compounds was determined by LC-MS/MS to investigate the apparent permeability and effection rate, and to analyze the bidirectional transport characteristics of candidate compounds in the Caco-2 cell monolayer model.
(In general: Caco-2 cells form a polarised layer with tight junctions and transporters.)

The test system of data set [5] is Caco-2 cell monolayer model. Put plainly: Caco-2 bidirectional transport. The class given is in vitro ADME. The following applies: Caco-2, 120 min. The method, then:
as §3

Data set [6] concerns MDA-MB-231 xenograft. Briefly: MDA-MB-231 xenograft tumor growth inhibition. The following applies: 50 mg/kg (each drug), intragastric once daily, 16 days, by tumor weight. The data set is classed as in vivo, nude mice (BALB/c-nu). The procedure:
All procedures were performed in accordance with the Laboratory Animals Welfare Act, the Guide for the Care and Use of Laboratory Animals and the Guidelines and Policies. The rodent experiment was approved by IACUC (Institutional Animal Care and Use Committee) in the Experimental Animal Ethics Committee of West China Hospital (Approval No. 2021672A). 48 female nude mice (BALB/c-nu, 5 weeks, 15–18 g, purchased from Beijing HFK Bio-Technology Co., LTD) were acclimatized for one week in an SPF-grade animal facility (ventilated, 20–25 °C, 50–60% humidity). […] When the tumor volume reached approximately 100 mm^3 (V = L × W^2/2), the mice were randomly divided into six groups (n = 8 per group): (1) Control group (normal saline); (2) 25 mg/kg SKLB-D18-treated group; (3) 50 mg/kg SKLB-D18-treated group; (4) 50 mg/kg BVD-523-treated group; (5) 50 mg/kg XMD8-92-treated group; (6) BVD-523 (50 mg/kg) and XMD8-92 (50 mg/kg) combined treatment group. Drugs were freshly prepared with 5% DMSO, 10% Solutol HS-15, and 85% normal saline on the day of administration. Intragastric administration occurred once daily at the same time for 16 consecutive days. And the body weight and tumor volume of mice were measured every three days. After the administration period, all nude mice were euthanized by cervical dislocation the next day. Tumors and vital organs (heart, liver, spleen, lung, kidney) were dissected, and tumors were weighed, then immediately fixed in 4% paraformaldehyde or stored in −80 °C.

Data set [7] relates to ERK1/2 and ERK5. Put plainly: Cellular thermal shift assay (CETSA). The class given is cell-based. The following applies: 2 μM, MDA-MB-231 and MDA-MB-468 cells, 37–62 °C. The method, then:
Cells were collected by trypsin and then resuspended in PBS. Following heating at the indicated temperatures (37, 42, 47, 52, 57, and 62 °C) for 3 min, cell suspensions were lysed by three freeze−thaw cycles with liquid nitrogen and thawed at room temperature. The lysates were separated by centrifugation at 17,000 × g for 20 min. The supernatants were collected and prepared for Immunoblotting to detect the stability of ERK1/2 and ERK5.

The structures appear in SMILES notation. Where “and” joins values, the source holds several entries; their conditions need not be identical. Equal values may be shown once.

A word on the IC50: it is the concentration that inhibits the measured activity by half. A high value points to a need for much substance. Broadly, the microsomal CLint is the rate of metabolic loss divided by the concentration. The half-life is how long it takes for the measured level to halve. A low value points to fast loss.

ERK5, sequence (Q13164 whole entry): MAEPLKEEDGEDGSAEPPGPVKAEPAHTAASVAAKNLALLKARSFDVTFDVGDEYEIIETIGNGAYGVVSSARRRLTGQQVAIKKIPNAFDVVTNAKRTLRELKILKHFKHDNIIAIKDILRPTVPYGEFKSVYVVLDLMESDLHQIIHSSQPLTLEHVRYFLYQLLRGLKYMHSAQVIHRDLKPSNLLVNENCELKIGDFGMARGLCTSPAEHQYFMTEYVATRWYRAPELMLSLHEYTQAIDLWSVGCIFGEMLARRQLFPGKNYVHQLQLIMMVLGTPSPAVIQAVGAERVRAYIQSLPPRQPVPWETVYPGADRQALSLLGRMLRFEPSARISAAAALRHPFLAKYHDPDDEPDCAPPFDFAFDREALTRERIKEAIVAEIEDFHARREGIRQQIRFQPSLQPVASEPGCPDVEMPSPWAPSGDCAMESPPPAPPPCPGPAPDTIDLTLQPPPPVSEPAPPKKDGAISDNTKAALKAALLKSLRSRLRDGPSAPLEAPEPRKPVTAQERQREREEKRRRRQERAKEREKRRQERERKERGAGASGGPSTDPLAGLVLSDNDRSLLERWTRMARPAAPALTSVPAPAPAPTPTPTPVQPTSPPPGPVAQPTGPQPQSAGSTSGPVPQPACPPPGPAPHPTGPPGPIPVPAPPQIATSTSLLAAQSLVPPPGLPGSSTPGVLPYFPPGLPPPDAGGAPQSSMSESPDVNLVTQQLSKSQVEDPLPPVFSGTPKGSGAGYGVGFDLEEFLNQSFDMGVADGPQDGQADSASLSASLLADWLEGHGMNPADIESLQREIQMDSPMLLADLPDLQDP
ERK2, sequence (P28482 whole entry, the tested form may be a part): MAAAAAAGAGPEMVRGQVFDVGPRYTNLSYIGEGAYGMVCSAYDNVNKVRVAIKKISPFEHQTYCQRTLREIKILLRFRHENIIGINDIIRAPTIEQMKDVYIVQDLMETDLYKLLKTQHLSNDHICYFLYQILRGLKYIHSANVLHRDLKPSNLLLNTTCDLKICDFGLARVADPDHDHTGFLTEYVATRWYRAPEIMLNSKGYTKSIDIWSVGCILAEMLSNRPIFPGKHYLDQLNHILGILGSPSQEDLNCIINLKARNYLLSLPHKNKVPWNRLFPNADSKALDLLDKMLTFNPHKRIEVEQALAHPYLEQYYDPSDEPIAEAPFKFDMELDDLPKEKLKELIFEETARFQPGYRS

`CN(C)Cc1cccc(Nc2ncc(Cl)c(-c3csc(C(=O)NN4CCOCC4)c3)n2)c1` [SKLB-D18, 4-(5-chloro-2-((3-((dimethylamino)methyl)phenyl)amino)pyrimidin-4-yl)-N-morpholinothiophene-2-carboxamide]: the IC50 worked out at 40.1 ± 0.95 nM in data set [1] (ADP-Glo) and 59.7 ± 1.21 nM in data set [2] (ADP-Glo). The inhibition at 0.5 µM is 93.2 ± 1.45% in data set [1] (read-out: Enzyme inhibitory activity (500 nM, %) ERK2) and 93.1 ± 1.03% in data set [2] (read-out: Enzyme inhibitory activity (500 nM, %) ERK5). Further, the “Residual rate (%)” value in data set [3] (SD rat liver microsomes) worked out at 25.8%; in data set [3] (human liver microsomes), 69.42%. Besides, the “T1/2” value in data set [3] (SD rat liver microsomes) was 32.51 min. For the same molecule, the microsomal CLint came out at 42.6 µL/min/mg in data set [3] (SD rat liver microsomes) and 15.1 µL/min/mg in data set [3] (human liver microsomes). In addition, the half-life in data set [3] (SD, rat, liver microsomes) amounted to 32.5 min; in data set [3] (human liver microsomes), 91.6 min. Besides, the Papp A→B at 30 min in data set [4] (Caco-2, 30 min, read-out: AP→BL Papp) was 0.106 ± 0.01 ×10⁻⁶ cm/s. In addition, in data set [4] (Caco-2, 30 min, read-out: BL→AP Papp), the Papp B→A at 30 min stood at 0.011 ± 0.01 ×10⁻⁶ cm/s. Moreover, the Papp A→B at 60 min in data set [4] (Caco-2, 60 min, read-out: AP→BL Papp) was determined as 0.318 ± 0.06 ×10⁻⁶ cm/s. In data set [4] (Caco-2, 60 min, read-out: BL→AP Papp), the Papp B→A at 60 min stood at 0.117 ± 0.02 ×10⁻⁶ cm/s. For the same molecule, the Papp A→B at 120 min in data set [4] (Caco-2, 120 min, read-out: AP→BL Papp) turned out to be 2.23 ×10⁻⁶ cm/s. The Papp B→A at 120 min in data set [4] (Caco-2, 120 min, read-out: BL→AP Papp) was 0.305 ×10⁻⁶ cm/s. For the same molecule, in data set [5], the “Efflux rate (%)” value was 13.7% and 13.7 ± 0.5%. The same molecule came in with a tumor inhibition rate in data set [6] of 79.88%. In data set [7], the “thermal shift of ERK5 and ERK1/2 proteins (CETSA)” value is “increasing thermal shift”.

(Values after publication PMC11842588, “A first-in-class selective inhibitor of ERK1/2 and ERK5 overcomes drug resistance with a single-molecule strategy” (Signal Transduction and Targeted Therapy, 2025).)
